From ChEMBL document CHEMBL2040726, “The effects of aminoguanidine on retinopathy in STZ-induced diabetic rats” (Bioorg Med Chem Lett, 2012)
Activity calls are given as the source filed them. No cut-off for these calls is given here.

Assays:
Rattus norvegicus [1] = test: Antiretinopathic activity in Sprague-Dawley rat streptozotocin-induced diabetic model assessed as effect on retinal endothelial cell count at 50 mg/kg/day administered with drinking water after 6 months by hematoxylin and eosin staining; type: functional, organism-based
Rattus norvegicus [2] = test: Antiretinopathic activity in Sprague-Dawley rat streptozotocin-induced diabetic model assessed as ratio of retinal endothelial cell count to pericyte cell count at 50 mg/kg/day administered with drinking water after 3 months by hematoxylin and eosin staining (reference value: 3.25 +/- 0.27); type: functional
Rattus norvegicus [3] = test: Toxicity in normal Sprague-Dawley rat assessed as effect on ratio of retinal endothelial cell count to pericyte cell count at 50 mg/kg/day administered with drinking water after 6 months by hematoxylin and eosin staining (reference value: 3.58 +/- 0.61); type: organism-based; conditions: in vivo
Rattus norvegicus [4] = test: Antiretinopathic activity in Sprague-Dawley rat streptozotocin-induced diabetic model assessed as increase of retinal electron density of basement membrane at 50 mg/kg/day administered with drinking water after 6 months by transmission electron microscopic analysis; type: functional, organism-based
Rattus norvegicus [5] = test: Antiretinopathic activity in Sprague-Dawley rat streptozotocin-induced diabetic model assessed as effect on retinal endothelial cell count at 50 mg/kg/day administered with drinking water after 3 months by hematoxylin and eosin staining; type: functional, organism-based
Rattus norvegicus [6] = test: Antiretinopathic activity in Sprague-Dawley rat streptozotocin-induced diabetic model assessed as swollen of retinal pericyte mitochondria and endothelial cells at 50 mg/kg/day administered with drinking water after 6 months by transmission electron microscopic analysis; type: functional, organism-based; conditions: Endothelial cell
Rattus norvegicus [7] = test: Toxicity in normal Sprague-Dawley rat assessed as effect on ratio of retinal endothelial cell count to pericyte cell count at 50 mg/kg/day administered with drinking water after 3 months by hematoxylin and eosin staining (reference value: 2.89 +/- 0.76); type: organism-based; conditions: in vivo
Rattus norvegicus [8] = test: Antidiabetic activity in Sprague-Dawley rat streptozotocin-induced diabetic model assessed as reduction of body weight at 50 mg/kg/day administered with drinking water after 3 months (reference value: 206.00 +/- 52.59 g); type: functional
Rattus norvegicus [9] = test: Antiretinopathic activity in Sprague-Dawley rat streptozotocin-induced diabetic model assessed as effect on retinal pericyte cell count at 50 mg/kg/day administered with drinking water after 3 months by hematoxylin and eosin staining; type: functional, organism-based
Rattus norvegicus [10] = test: Antidiabetic activity in Sprague-Dawley rat streptozotocin-induced diabetic model assessed as reduction of body weight at 50 mg/kg/day administered with drinking water after 6 months (reference value: 254.50 +/- 123.03 g); type: functional
Rattus norvegicus [11] = test: Antiretinopathic activity in Sprague-Dawley rat streptozotocin-induced diabetic model assessed as reduction of retinal advanced glycated end products positive area at 50 mg/kg/day administered with drinking water after 3 months by immunohistochemistry analysis (reference value: 69.20 +/- 10.75%); type: functional; parameters: scale not given: the % may be the effect or the level left
Rattus norvegicus [12] = test: Toxicity in normal Sprague-Dawley rat assessed as effect on retinal endothelial cell count at 50 mg/kg/day administered with drinking water after 6 months by hematoxylin and eosin staining; type: organism-based; conditions: in vivo
Rattus norvegicus [13] = test: Effect on fasting blood glucose level in normal Sprague-Dawley rat 50 mg/kg/day administered with drinking water after 6 months (reference value: 5.51 +/- 1.06 mmol/L); type: functional
Rattus norvegicus [14] = test: Antidiabetic activity in Sprague-Dawley rat streptozotocin-induced diabetic model assessed as reduction of fasting blood glucose level at 50 mg/kg/day administered with drinking water after 6 months (reference value: 20.20 +/- 5.51 mmol/L); type: functional
Rattus norvegicus [15] = test: Toxicity in normal Sprague-Dawley rat assessed as reduction of body weight at 50 mg/kg/day administered with drinking water after 3 months (reference value: 561.00 +/- 32.04 g); type: organism-based; conditions: in vivo
Rattus norvegicus [16] = test: Antiretinopathic activity in Sprague-Dawley rat streptozotocin-induced diabetic model assessed as ratio of retinal endothelial cell count to pericyte cell count at 50 mg/kg/day administered with drinking water after 6 months by hematoxylin and eosin staining (reference value: 10.91 +/- 3.34); type: functional
Rattus norvegicus [17] = test: Toxicity in normal Sprague-Dawley rat assessed as reduction of body weight at 50 mg/kg/day administered with drinking water after 6 months (reference value: 547.50 +/- 36.23 g); type: organism-based; conditions: in vivo
Rattus norvegicus [18] = test: Toxicity in normal Sprague-Dawley rat assessed as effect on retinal endothelial cell count at 50 mg/kg/day administered with drinking water after 3 months by hematoxylin and eosin staining; type: organism-based; conditions: in vivo
Rattus norvegicus [19] = test: Toxicity in normal Sprague-Dawley rat assessed as effect on retinal pericyte cell count at 50 mg/kg/day administered with drinking water after 3 months by hematoxylin and eosin staining; type: organism-based; conditions: in vivo
Rattus norvegicus [20] = test: Antiretinopathic activity in Sprague-Dawley rat streptozotocin-induced diabetic model assessed as effect on retinal pericyte cell count at 50 mg/kg/day administered with drinking water after 6 months by hematoxylin and eosin staining; type: functional, organism-based
Rattus norvegicus [21] = test: Toxicity in normal Sprague-Dawley rat assessed as retinal advanced glycated end products positive area at 50 mg/kg/day administered with drinking water after 6 months by immunohistochemistry analysis (reference value: 0.75 +/- 0.94%); type: organism-based; conditions: in vivo
Rattus norvegicus [22] = test: Antidiabetic activity in Sprague-Dawley rat streptozotocin-induced diabetic model assessed as reduction of fasting blood glucose level at 50 mg/kg/day administered with drinking water after 3 months (reference value: 20.99 +/- 4.13 mmol/L); type: functional
Rattus norvegicus [23] = test: Toxicity in normal Sprague-Dawley rat assessed as retinal advanced glycated end products positive area at 50 mg/kg/day administered with drinking water after 3 months by immunohistochemistry analysis (reference value: 0.64 +/- 0.87%); type: organism-based; conditions: in vivo
Rattus norvegicus [24] = test: Effect on fasting blood glucose level in normal Sprague-Dawley rat 50 mg/kg/day administered with drinking water after 3 months (reference value: 5.68 +/- 0.96 mmol/L); type: functional
Rattus norvegicus [25] = test: Toxicity in normal Sprague-Dawley rat assessed as effect on retinal pericyte cell count at 50 mg/kg/day administered with drinking water after 6 months by hematoxylin and eosin staining; type: organism-based; conditions: in vivo
Rattus norvegicus [26] = test: Antiretinopathic activity in Sprague-Dawley rat streptozotocin-induced diabetic model assessed as reduction of retinal advanced glycated end products positive area at 50 mg/kg/day administered with drinking water after 6 months by immunohistochemistry analysis (reference value: 78.70 +/- 7.11%); type: functional; parameters: scale not given: the % may be the effect or the level left

N=C(N)NN [PIMAGEDINE]
Activity (Rattus norvegicus [1]): inactive | Ratio (Rattus norvegicus [2]): 3.06 | Ratio (Rattus norvegicus [3]): 3.46 | Activity (Rattus norvegicus [4]): inactive | Activity (Rattus norvegicus [5]): inactive | Activity (Rattus norvegicus [6]): Active | Ratio (Rattus norvegicus [7]): 2.95 | Activity (Rattus norvegicus [8]): 219.5 g | Activity (Rattus norvegicus [9]): inactive | Activity (Rattus norvegicus [10]): 284.5 g | Activity (Rattus norvegicus [11]): 12.71% | Activity (Rattus norvegicus [12]): Non-toxic | Activity (Rattus norvegicus [13]): 5.07 mmol/L | Activity (Rattus norvegicus [14]): 21.74 mmol/L | Activity (Rattus norvegicus [15]): 536.5 g | Ratio (Rattus norvegicus [16]): 3.71 | Activity (Rattus norvegicus [17]): 553 g | Activity (Rattus norvegicus [18]): Non-toxic | Activity (Rattus norvegicus [19]): Non-toxic | Activity (Rattus norvegicus [20]): inactive | Activity (Rattus norvegicus [21]): 3.27% | Activity (Rattus norvegicus [22]): 21.89 mmol/L | Activity (Rattus norvegicus [23]): 1.33% | Activity (Rattus norvegicus [24]): 5.23 mmol/L | Activity (Rattus norvegicus [25]): Non-toxic | Activity (Rattus norvegicus [26]): 9.16%
